The results in this text go back to patent publication US6410686B1, “Galanin receptor 2 protein” (Bayer Corporation, priority 1996, dated 2002).

SMILES strings stand for the structures. Read-outs that look alike come from different tables or passages of the source. Residues, ends and D or L forms follow the SMILES beside them.

One assay concerns the target T1, Rat GalR2 [clone Y107] (Rattus norvegicus, UniProt O08726).
T1 construct: expressed in transfected cells; host or cells: COS-7 (monkey kidney), transient, pcDNA3 clone from a rat hypothalamus cDNA library; membranes
T1 sequence (O08726 1-372): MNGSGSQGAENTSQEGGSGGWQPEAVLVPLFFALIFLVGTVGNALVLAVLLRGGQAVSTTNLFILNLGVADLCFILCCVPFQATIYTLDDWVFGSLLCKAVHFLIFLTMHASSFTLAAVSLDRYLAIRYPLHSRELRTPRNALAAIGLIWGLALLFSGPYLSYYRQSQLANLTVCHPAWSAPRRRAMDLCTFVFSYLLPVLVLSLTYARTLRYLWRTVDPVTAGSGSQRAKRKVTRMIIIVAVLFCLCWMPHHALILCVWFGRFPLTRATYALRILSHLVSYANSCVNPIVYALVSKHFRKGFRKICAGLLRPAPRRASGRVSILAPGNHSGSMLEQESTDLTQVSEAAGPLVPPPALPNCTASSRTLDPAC
Kind of assay: [125I]hGalanin competition binding, membranes of COS-7 cells transiently expressing rat GalR2 clone Y107. As for the experimental part:
(§1) 15 μg of DNA and 90 μl of lipofectamine were added to each flask. Media was replaced 24 hours post transfection, and membranes were harvested 24 hours later.
(§2) The media was removed from each flask of transfected cells, and the cells were washed twice with 20 ml ice-cold phosphate buffered saline. The cells were scraped from the flask in 5 ml of Tris buffer (20 mM Tris-HCl, 5 mM EDTA, pH 7.7), and then transferred to a centrifuge tube. Each flask was rinsed with an additional 5 ml of Tris buffer, and combined in the centrifuge tube. The cells were homogenized in a Polytron PT-3000 (Brinkman Instruments, Mill Valley, N.Y.) for 2×10 seconds ([…], 7000-8000 rpm) and centrifuged at 20,000×g for 30 minutes at 4° C. The pellet was resuspended in fresh Tris buffer, and centrifuged again at 20,000×g for 30 minutes at 4° C. Protein concentration was measured using the Bio-Rad kit according to the standard manufacturer's protocol (Bio-Rad Laboratories (Hercules, Calif.) 500-0001) using bovine IgG as the standard.
(§3) The binding assays were performed on 96-well plates (GF/C Millipore Corp., Bedford, MA PN MAFC NOB 50) pretreated with 0.3% polyethylenimine (PEI) for at least 3 hours prior to use. The PEI was aspirated from the plates on a vacuum manifold, and the wells were rinsed with 200 μl of ice-cold binding buffer (25 mM Tris, 10 mM MgCl2, 0.1% BSA, pH 7.4) immediately before samples were added to the wells. […] Samples were incubated for 90 minutes at room temperature with constant shaking. To terminate the reaction, samples were aspirated on a vacuum manifold and rinsed with 3×200 μl ice-cold buffer. Samples were then counted on a gamma counter to quantitate the amount of radioactivity. […] (West Haven, Conn.). All other peptides were purchased from either Peninsula (Belmont, Calif.) or Bachem (Torrance, Calif.).
(§4) Peptide species are indicated with the following prefixes: r≡rat, h≡human.

The next assay addresses T2, Rat GalR1 [cloned] (Rattus norvegicus, UniProt Q62805).
T2 construct: expressed in transfected cells; host or cells: COS-7 (monkey kidney), transient; membranes
T2 sequence (Q62805 1-346): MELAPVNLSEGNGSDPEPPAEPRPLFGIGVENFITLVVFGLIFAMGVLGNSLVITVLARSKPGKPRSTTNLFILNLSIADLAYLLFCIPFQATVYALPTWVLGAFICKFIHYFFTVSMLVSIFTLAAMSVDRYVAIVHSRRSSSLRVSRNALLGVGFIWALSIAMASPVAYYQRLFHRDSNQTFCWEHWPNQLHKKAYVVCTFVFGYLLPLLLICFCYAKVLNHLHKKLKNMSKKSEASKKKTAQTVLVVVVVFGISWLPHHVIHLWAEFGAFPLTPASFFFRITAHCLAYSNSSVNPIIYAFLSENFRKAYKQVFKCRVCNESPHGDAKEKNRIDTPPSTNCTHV
Nature of the assay: [125I]hGalanin competition binding, membranes of COS-7 cells transiently expressing rat GalR1. The method, then: as §1, §2, §3, §4

[1] abbreviates: 50 pM [125I]hGalanin, COS-7 membranes, 90 minutes at room temperature, average (individual values) or single experiment, read-out: Rat GalR2 [clone Y107] IC50 value.
The mark [2] stands for this setting: 50 pM [125I]hGalanin, COS-7 membranes, 90 minutes at room temperature, average ± SEM, or average (individual values), read-out: Rat GalR1 [cloned] IC50 value.

For `CC[C@H](C)[C@H](NC(=O)[C@H](C)NC(=O)[C@H](Cc1c[nH]cn1)NC(=O)[C@@H]1CCCN1C(=O)CNC(=O)[C@H](CC(C)C)NC(=O)[C@H](CC(C)C)NC(=O)[C@H](Cc1ccc(O)cc1)NC(=O)CNC(=O)[C@H](C)NC(=O)[C@H](CO)NC(=O)[C@@H](N)CC(N)=O)C(=O)N[C@@H](CC(=O)O)C(=O)N[C@@H](CC(N)=O)C(=O)N[C@@H](Cc1c[nH]cn1)C(=O)N[C@@H](CCCNC(=N)N)C(=O)N[C@@H](CO)C(=O)N[C@@H](Cc1ccccc1)C(=O)N[C@@H](CO)C(=O)N[C@@H](CC(=O)O)C(=O)N[C@@H](CCCCN)C(=O)N[C@@H](Cc1c[nH]cn1)C(=O)NCC(=O)N[C@@H](CC(C)C)C(=O)N[C@H](C(N)=O)[C@@H](C)O` [r(5-29)galanin] (H-NSAGYLLGPHAIDNHRSFSDKHGLT-NH2; N-terminus and C-terminus assumed), the IC50 on Rat GalR2 [clone Y107] (setting [1]) and on Rat GalR1 [cloned] (setting [2]) was greater than 1000 nM each time.
As to `CC[C@H](C)[C@H](NC(=O)[C@H](C)NC(=O)[C@H](Cc1c[nH]cn1)NC(=O)[C@@H]1CCCN1C(=O)CNC(=O)[C@H](CC(C)C)NC(=O)[C@H](CC(C)C)NC(=O)[C@H](Cc1ccc(O)cc1)NC(=O)CNC(=O)[C@H](C)NC(=O)[C@H](CO)NC(=O)[C@H](CC(N)=O)NC(=O)[C@H](CC(C)C)NC(=O)[C@@H](N)[C@@H](C)O)C(=O)N[C@@H](CC(=O)O)C(=O)N[C@@H](CC(N)=O)C(=O)N[C@@H](Cc1c[nH]cn1)C(=O)N[C@@H](CCCNC(=N)N)C(=O)N[C@@H](CO)C(=O)N[C@@H](Cc1ccccc1)C(=O)N[C@@H](CO)C(=O)N[C@@H](CC(=O)O)C(=O)N[C@@H](CCCCN)C(=O)N[C@@H](Cc1c[nH]cn1)C(=O)NCC(=O)N[C@@H](CC(C)C)C(=O)N[C@H](C(N)=O)[C@@H](C)O` [r(3-29)galanin], the IC50 at Rat GalR2 [clone Y107] and on Rat GalR1 [cloned] was greater than 1000 nM throughout.
With `CC[C@H](C)[C@H](NC(=O)[C@H](C)NC(=O)[C@H](Cc1c[nH]cn1)NC(=O)[C@@H]1CCCN1C(=O)CNC(=O)[C@H](CC(C)C)NC(=O)[C@@H](N)CC(C)C)C(=O)N[C@@H](CC(=O)O)C(=O)N[C@@H](CC(N)=O)C(=O)N[C@@H](Cc1c[nH]cn1)C(=O)N[C@@H](CCCNC(=N)N)C(=O)N[C@@H](CO)C(=O)N[C@@H](Cc1ccccc1)C(=O)N[C@@H](CO)C(=O)N[C@@H](CC(=O)O)C(=O)N[C@@H](CCCCN)C(=O)N[C@@H](Cc1c[nH]cn1)C(=O)NCC(=O)N[C@@H](CC(C)C)C(=O)N[C@H](C(N)=O)[C@@H](C)O` [r(10-29)galanin] (H-LLGPHAIDNHRSFSDKHGLT-NH2; N-terminus and C-terminus assumed), the IC50 on Rat GalR2 [clone Y107] (setting [1]) and at Rat GalR1 [cloned] (setting [2]) was greater than 1000 nM in each case.
Turning to `CC(C)C[C@H](NC(=O)CNC(=O)[C@H](CC(N)=O)NC(=O)[C@H](CCCCN)NC(=O)[C@H](CC(=O)O)NC(=O)[C@H](CO)NC(=O)[C@H](Cc1ccccc1)NC(=O)[C@H](CO)NC(=O)[C@H](CCCNC(=N)N)NC(=O)[C@H](Cc1c[nH]cn1)NC(=O)[C@H](CC(N)=O)NC(=O)CNC(=O)[C@@H](NC(=O)[C@H](C)NC(=O)[C@H](Cc1c[nH]cn1)NC(=O)[C@@H]1CCCN1C(=O)CNC(=O)[C@H](CC(C)C)NC(=O)[C@H](CC(C)C)NC(=O)[C@H](Cc1ccc(O)cc1)NC(=O)CNC(=O)[C@H](C)NC(=O)[C@H](CO)NC(=O)[C@H](CC(N)=O)NC(=O)[C@H](CC(C)C)NC(=O)[C@@H](N)[C@@H](C)O)C(C)C)C(=O)N[C@H](C(=O)N[C@@H](CO)C(=O)O)[C@@H](C)O` [h(3-30)galanin] (H-TLNSAGYLLGPHAVGNHRSFSDKNGLTS-OH; N-terminus and C-terminus assumed), the IC50 (usually the point on the concentration scale where inhibition reaches its midpoint) at Rat GalR2 [clone Y107] (read-out: Rat GalR2 [clone Y107] IC50 value, 50 pM [125I]hGalanin, COS-7 membranes, 90 minutes at room temperature, average (individual values) or single experiment) is greater than 1000 nM; on Rat GalR1 [cloned] (read-out: Rat GalR1 [cloned] IC50 value, 50 pM [125I]hGalanin, COS-7 membranes, 90 minutes at room temperature, average ± SEM, or average (individual values)) it was greater than 1000 nM.
Regarding `CC[C@H](C)[C@H](NC(=O)[C@H](C)NC(=O)[C@H](Cc1c[nH]cn1)NC(=O)[C@@H]1CCCN1C(=O)CNC(=O)[C@H](CC(C)C)NC(=O)[C@H](CC(C)C)NC(=O)[C@@H](N)Cc1ccc(O)cc1)C(=O)N[C@@H](CC(=O)O)C(=O)N[C@@H](CC(N)=O)C(=O)N[C@@H](Cc1c[nH]cn1)C(=O)N[C@@H](CCCNC(=N)N)C(=O)N[C@@H](CO)C(=O)N[C@@H](Cc1ccccc1)C(=O)N[C@@H](CO)C(=O)N[C@@H](CC(=O)O)C(=O)N[C@@H](CCCCN)C(=O)N[C@@H](Cc1c[nH]cn1)C(=O)NCC(=O)N[C@@H](CC(C)C)C(=O)N[C@H](C(N)=O)[C@@H](C)O` [r(9-29)galanin] (H-YLLGPHAIDNHRSFSDKHGLT-NH2; N-terminus and C-terminus assumed), the IC50 on Rat GalR2 [clone Y107] (setting [1]) and at Rat GalR1 [cloned] (setting [2]) was greater than 1000 nM each time.
